From patent US20080009418A1, “Selective Inhibitors” (Alchemia LTD., priority 2004, published 2008)

Columns and labels:
[1] = molecular target: T1, Human δ-opioid (DOP) (Homo sapiens, UniProt P41143); test: Radioligand binding, human δ-opioid (DOP) membranes, FlashPlate, [3H]-Bremazocine; conditions: compound at 10 μM, [3H]-Bremazocine
T1 construct: purchased Perkin Elmer Biosignal
In short: (§1)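 Cloned human receptor membranes were coated onto FlashPlate wells and incubated with radioligand and compound (added from a 0.5 mM DMSO daughter plate) for 1 hour at room temperature in the dark. Scintillation counting gave percent inhibition, with DMSO defining total and reference ligand defining non-specific binding.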

[2] = molecular target: T2, Mouse urotensin (mUR2) (Mus musculus, UniProt Q8VIH9); test: Radioligand binding, mouse urotensin mUR2 membranes, FlashPlate, [125I]-Urotensin II; conditions: compound at 10 μM, [125I]-Urotensin II
T2 construct: purchased Perkin Elmer Biosignal
T2 sequence (Q8VIH9 1-385): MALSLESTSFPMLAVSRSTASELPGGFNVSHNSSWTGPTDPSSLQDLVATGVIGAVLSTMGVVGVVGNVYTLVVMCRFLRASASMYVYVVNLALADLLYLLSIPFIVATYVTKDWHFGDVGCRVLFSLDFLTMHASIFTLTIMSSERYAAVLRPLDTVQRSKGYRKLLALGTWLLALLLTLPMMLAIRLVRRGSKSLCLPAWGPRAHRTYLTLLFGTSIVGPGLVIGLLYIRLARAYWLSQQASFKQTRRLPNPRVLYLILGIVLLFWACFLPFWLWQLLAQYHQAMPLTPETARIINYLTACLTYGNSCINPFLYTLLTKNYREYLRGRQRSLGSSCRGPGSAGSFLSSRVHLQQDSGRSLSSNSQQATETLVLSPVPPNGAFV
In short: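 Cloned mouse urotensin (mUR2) receptor membranes from Perkin Elmer Biosignal were immobilized in FlashPlate microplates using a proprietary coating. Each well got 19.5 μl buffer, then 0.5 μl of DMSO, reference ligand, or compound. Adding 5 μl of [125I]-Urotensin II, diluted to 5× final concentration in binding buffer, started binding. Plates were sealed with TopSeal-A and incubated 1 hour at room temperature in the dark. Wells were counted for 30 seconds each on a TopCount after a 60-second delay, and percentage inhibition was calculated.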

[3] = molecular target: T3, Human melanin-concentrating hormone (MCH1) (Homo sapiens, UniProt Q99705); test: Radioligand binding, human melanin-concentrating hormone MCH1 membranes, FlashPlate, [125I]-S36057; conditions: compound at 10 μM; for A6: inhibition of radioligand binding, human melanin-concentrating hormone (MCH1): [125I]-S36057
T3 construct: purchased Perkin Elmer Biosignal
T3 sequence (Q99705 whole entry): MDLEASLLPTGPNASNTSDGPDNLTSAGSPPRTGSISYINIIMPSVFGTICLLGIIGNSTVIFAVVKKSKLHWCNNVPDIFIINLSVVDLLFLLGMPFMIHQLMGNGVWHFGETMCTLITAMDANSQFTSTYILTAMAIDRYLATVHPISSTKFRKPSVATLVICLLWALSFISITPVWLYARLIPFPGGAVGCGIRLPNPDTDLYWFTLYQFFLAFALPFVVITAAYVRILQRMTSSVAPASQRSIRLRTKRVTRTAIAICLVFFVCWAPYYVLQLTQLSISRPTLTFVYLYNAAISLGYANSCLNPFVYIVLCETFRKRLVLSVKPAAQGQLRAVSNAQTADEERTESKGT
In short: as §1

[4] = molecular target: T4, Human melanocortin (MC5) (Homo sapiens, UniProt P33032); test: Radioligand binding, human melanocortin MC5 membranes, FlashPlate, [125I]-NDP-αMSH; conditions: compound at 10 μM, [125I]-NDP-αMSH
T4 construct: purchased Perkin Elmer Biosignal
T4 sequence (P33032 whole entry): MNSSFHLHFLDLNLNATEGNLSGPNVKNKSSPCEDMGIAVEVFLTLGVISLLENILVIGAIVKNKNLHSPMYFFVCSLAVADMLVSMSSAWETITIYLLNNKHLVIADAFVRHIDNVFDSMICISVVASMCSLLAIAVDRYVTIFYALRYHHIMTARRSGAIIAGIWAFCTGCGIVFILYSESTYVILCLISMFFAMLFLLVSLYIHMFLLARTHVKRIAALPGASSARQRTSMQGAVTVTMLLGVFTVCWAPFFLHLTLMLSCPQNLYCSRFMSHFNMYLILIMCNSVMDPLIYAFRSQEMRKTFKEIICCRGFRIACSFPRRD
In short: as §1

[5] = molecular target: T5, Human neuropeptide Y (NPY-Y1) (Homo sapiens, UniProt P25929); test: Radioligand binding, human neuropeptide Y NPY-Y1 membranes, FlashPlate, [125I]-PYY; conditions: compound at 10 μM, [125I]-PYY
T5 construct: purchased Perkin Elmer Biosignal
T5 sequence (P25929 1-384): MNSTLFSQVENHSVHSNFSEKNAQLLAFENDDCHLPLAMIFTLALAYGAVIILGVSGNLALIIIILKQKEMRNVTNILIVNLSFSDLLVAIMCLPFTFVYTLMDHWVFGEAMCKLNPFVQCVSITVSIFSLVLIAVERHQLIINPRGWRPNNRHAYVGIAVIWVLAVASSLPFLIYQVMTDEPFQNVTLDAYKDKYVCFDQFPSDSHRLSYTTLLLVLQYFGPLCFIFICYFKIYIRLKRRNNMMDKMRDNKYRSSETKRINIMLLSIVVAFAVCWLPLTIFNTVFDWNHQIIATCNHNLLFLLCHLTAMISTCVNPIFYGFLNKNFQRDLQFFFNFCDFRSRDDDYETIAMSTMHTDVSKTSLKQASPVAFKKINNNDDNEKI
In short: as §1

[6] = molecular target: T6, Human μ-opioid (MOP) (Homo sapiens, UniProt P35372); test: Radioligand binding, human μ-opioid (MOP) membranes, FlashPlate, [3H]-Naloxone; conditions: compound at 10 μM, [3H]-Naloxone
T6 construct: purchased Perkin Elmer Biosignal
T6 sequence (P35372 whole entry): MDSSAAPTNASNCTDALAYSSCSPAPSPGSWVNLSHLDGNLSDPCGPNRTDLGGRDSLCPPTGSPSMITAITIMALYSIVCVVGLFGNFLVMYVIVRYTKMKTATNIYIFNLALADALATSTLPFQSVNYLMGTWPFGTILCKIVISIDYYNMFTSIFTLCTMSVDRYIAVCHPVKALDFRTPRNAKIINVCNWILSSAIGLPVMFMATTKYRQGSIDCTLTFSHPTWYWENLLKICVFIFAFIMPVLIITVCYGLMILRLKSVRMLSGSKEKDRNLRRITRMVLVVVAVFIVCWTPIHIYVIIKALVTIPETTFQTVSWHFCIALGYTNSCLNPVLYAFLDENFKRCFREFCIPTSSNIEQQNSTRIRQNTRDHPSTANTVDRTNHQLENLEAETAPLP
In short: as §1

[7] = molecular target: T7, Human Melanocortin (MC3) (Homo sapiens, UniProt P41968); test: Radioligand binding, human melanocortin MC3 membranes, FlashPlate, [125I]-NDP-αMSH; conditions: compound at 10 μM, [125I]-NDP-αMSH
T7 construct: purchased Perkin Elmer Biosignal
T7 sequence (P41968 whole entry): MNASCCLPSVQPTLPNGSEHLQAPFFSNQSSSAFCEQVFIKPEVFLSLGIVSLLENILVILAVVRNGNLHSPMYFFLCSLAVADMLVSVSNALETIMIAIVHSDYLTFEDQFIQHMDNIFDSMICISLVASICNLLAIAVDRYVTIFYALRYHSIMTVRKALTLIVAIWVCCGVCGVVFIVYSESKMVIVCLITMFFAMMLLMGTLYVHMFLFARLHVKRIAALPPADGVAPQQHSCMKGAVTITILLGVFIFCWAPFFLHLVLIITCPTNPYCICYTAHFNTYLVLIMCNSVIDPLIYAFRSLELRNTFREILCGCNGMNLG
In short: as §1

[8] = molecular target: T8, Human neurokinin (NK1) (Homo sapiens, UniProt P25103); test: Radioligand binding, human neurokinin NK1 membranes, filtration, [125I]-Substance P; conditions: compound at 10 μM, [125I]-Substance P
T8 construct: purchased Perkin Elmer Biosignal
T8 sequence (P25103 whole entry): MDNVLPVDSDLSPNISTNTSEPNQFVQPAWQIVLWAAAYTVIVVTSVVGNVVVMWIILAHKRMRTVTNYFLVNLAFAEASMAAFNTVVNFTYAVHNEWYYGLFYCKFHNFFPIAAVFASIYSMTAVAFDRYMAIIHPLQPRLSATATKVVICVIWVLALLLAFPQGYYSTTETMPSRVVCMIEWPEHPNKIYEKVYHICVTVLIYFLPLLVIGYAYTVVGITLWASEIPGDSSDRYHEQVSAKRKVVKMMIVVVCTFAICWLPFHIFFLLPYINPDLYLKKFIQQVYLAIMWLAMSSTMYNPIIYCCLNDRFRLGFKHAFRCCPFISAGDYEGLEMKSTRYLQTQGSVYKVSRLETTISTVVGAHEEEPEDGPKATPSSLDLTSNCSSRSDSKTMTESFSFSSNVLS
In short: (§2)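 Filtration binding on cloned human receptor membranes (1 Unit/well), [125I]-Substance P for NK1 and [3H]-Diprenorphine for KOP, 1 h at room temperature. Filters PEI-presoaked, washed with cold 50 mM Tris-HCl pH 7.4, counted by scintillation; percent inhibition calculated, reference ligand defining non-specific binding.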

[9] = molecular target: T9, Human Melanocortin (MC4) (Homo sapiens, UniProt P32245); test: Radioligand binding, human melanocortin MC4 membranes, FlashPlate, [125I]-NDP-αMSH; conditions: compound at 10 μM, [125I]-NDP-αMSH
T9 construct: purchased Perkin Elmer Biosignal
T9 sequence (P32245 whole entry): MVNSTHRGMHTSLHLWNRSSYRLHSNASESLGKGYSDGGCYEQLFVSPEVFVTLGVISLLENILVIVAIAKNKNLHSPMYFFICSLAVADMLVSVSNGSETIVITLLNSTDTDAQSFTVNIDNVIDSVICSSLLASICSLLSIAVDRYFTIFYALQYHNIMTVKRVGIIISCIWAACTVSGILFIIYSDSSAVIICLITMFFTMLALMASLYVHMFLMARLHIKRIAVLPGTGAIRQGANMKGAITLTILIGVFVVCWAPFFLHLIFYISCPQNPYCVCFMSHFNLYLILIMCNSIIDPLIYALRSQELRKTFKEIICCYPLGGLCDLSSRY
In short: as §1

[10] = molecular target: T10, Human opioid (ORL1) (Homo sapiens, UniProt P41146); test: Radioligand binding, human opioid ORL1 membranes, FlashPlate, [125I]-Nociceptin; conditions: compound at 10 μM, [125I]-Nociceptin
T10 construct: purchased Perkin Elmer Biosignal
T10 sequence (P41146 whole entry): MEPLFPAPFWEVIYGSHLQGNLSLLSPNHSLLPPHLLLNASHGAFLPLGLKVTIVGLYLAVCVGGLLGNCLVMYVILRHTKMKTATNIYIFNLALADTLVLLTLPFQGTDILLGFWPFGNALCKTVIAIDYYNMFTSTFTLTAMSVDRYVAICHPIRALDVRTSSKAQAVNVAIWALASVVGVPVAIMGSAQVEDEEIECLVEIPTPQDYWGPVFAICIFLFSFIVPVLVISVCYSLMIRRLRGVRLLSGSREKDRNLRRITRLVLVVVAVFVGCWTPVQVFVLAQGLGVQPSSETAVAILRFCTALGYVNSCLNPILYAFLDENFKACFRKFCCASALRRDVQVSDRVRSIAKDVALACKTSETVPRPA
In short: as §1

[11] = molecular target: T11, Human κ-Opioid (KOP) (Homo sapiens, UniProt P41145); test: Radioligand binding, human κ-opioid (KOP) membranes, filtration, [3H]-Diprenorphine; conditions: compound at 10 μM, [3H]-Diprenorphine
T11 construct: purchased Perkin Elmer Biosignal
T11 sequence (P41145 whole entry): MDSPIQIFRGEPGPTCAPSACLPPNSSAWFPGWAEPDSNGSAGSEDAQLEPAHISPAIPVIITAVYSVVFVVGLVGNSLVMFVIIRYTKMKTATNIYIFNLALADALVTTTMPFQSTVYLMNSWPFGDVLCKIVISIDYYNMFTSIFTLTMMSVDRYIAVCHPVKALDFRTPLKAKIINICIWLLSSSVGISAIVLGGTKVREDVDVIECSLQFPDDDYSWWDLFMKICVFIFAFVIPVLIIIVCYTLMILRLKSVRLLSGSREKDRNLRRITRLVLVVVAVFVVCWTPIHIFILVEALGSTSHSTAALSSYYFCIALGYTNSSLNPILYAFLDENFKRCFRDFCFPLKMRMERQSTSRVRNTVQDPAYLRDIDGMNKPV
In short: as §2

[12] = [125I]-S36057, human MCH1 membranes

T1 sequence (P41143 whole entry): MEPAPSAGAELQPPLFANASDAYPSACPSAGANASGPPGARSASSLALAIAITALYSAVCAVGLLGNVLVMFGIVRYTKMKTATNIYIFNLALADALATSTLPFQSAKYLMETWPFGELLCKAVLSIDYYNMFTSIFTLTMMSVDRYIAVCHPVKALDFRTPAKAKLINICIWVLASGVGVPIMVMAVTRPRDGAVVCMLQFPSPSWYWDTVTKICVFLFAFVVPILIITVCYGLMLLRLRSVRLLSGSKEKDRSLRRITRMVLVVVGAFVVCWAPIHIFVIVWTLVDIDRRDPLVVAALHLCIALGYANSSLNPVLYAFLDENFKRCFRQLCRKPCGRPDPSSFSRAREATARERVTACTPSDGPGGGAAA

SMILES	A1: inhibition of radioligand binding, human δ-opioid (DOP) [1]	A11: inhibition of radioligand binding, mouse urotensin (mUR2) [2]	A5: inhibition of radioligand binding, human melanocortin (MC5) [4]	A9: inhibition of radioligand binding, human neuropeptide Y (NPY-Y1) [5]	A3: inhibition of radioligand binding, human melanocortin (MC3) [7]	A8: inhibition of radioligand binding, human neurokinin (NK1) [8]	A4: inhibition of radioligand binding, human melanocortin (MC4) [9]	A10: inhibition of radioligand binding, human opioid (ORL1) [10]	A2: inhibition of radioligand binding, human κ-opioid (KOP) [11]	A1: inhibition of radioligand binding ([1]; human DOP membranes)	A11: inhibition of radioligand binding ([2]; mouse mUR2 membranes)	A6: inhibition of radioligand binding [3, 12]	A5: inhibition of radioligand binding ([4]; human MC5 membranes)	A9: inhibition of radioligand binding ([5]; human NPY-Y1 membranes)	A7: inhibition of radioligand binding ([6]; human MOP membranes)	A3: inhibition of radioligand binding ([7]; human MC3 membranes)	A8: inhibition of radioligand binding ([8]; human NK1 membranes)	A4: inhibition of radioligand binding ([9]; human MC4 membranes)	A10: inhibition of radioligand binding ([10]; human ORL1 membranes)	A2: inhibition of radioligand binding ([11]; human KOP membranes)	further results
CSC1O[C@H](COCc2ccc(Cl)cc2)[C@@H](O)[C@@H](OCc2ccc(-c3ccccc3)cc2)[C@H]1NC(=O)CCN (stereo partly shown) [compound 290]	− (“−” indicates less than 50% inhibition at 10 μM)	− (“−” indicates less than 50% inhibition at 10 μM)	+ (“+” indicates greater than 50% inhibition at 10 μM)	− (“−” indicates less than 50% inhibition at 10 μM)	− (“−” indicates less than 50% inhibition at 10 μM)	+ (“+” indicates greater than 50% inhibition at 10 μM)	− (“−” indicates less than 50% inhibition at 10 μM)	− (“−” indicates less than 50% inhibition at 10 μM)	− (“−” indicates less than 50% inhibition at 10 μM)	–	–	–	–	–	–	–	–	–	–	–	A6: inhibition of radioligand binding, human melanin-concentrating hormone (MCH1) [3]: − (“−” indicates less than 50% inhibition at 10 μM); A7: inhibition of radioligand binding, human μ-opioid (MOP) [6]: − (“−” indicates less than 50% inhibition at 10 μM)
CSC1O[C@H](COCc2ccc(-c3ccccc3)cc2)[C@@H](O)[C@@H](OCc2ccc(Cl)cc2)[C@H]1NC(=O)CCN (stereo partly shown) [compound 276]	–	–	–	–	–	–	–	–	–	–	–	–	–	–	–	–	–	–	–	–	A1: inhibition of radioligand binding ([1]; FlashPlate): − (“−” indicates less than 50% inhibition at 10 μM); A11: inhibition of radioligand binding ([2]; FlashPlate): − (“−” indicates less than 50% inhibition at 10 μM); A6: inhibition of radioligand binding ([3]; [125I]-S36057, FlashPlate): − (“−” indicates less than 50% inhibition at 10 μM); A5: inhibition of radioligand binding ([4]; FlashPlate): − (“−” indicates less than 50% inhibition at 10 μM); A9: inhibition of radioligand binding ([5]; FlashPlate): − (“−” indicates less than 50% inhibition at 10 μM); A7: inhibition of radioligand binding ([6]; FlashPlate): − (“−” indicates less than 50% inhibition at 10 μM); A3: inhibition of radioligand binding ([7]; FlashPlate): − (“−” indicates less than 50% inhibition at 10 μM); A8: inhibition of radioligand binding ([8]; filtration): + (“+” indicates greater than 50% inhibition at 10 μM); A4: inhibition of radioligand binding ([9]; FlashPlate): − (“−” indicates less than 50% inhibition at 10 μM); A10: inhibition of radioligand binding ([10]; FlashPlate): − (“−” indicates less than 50% inhibition at 10 μM); A2: inhibition of radioligand binding ([11]; filtration): − (“−” indicates less than 50% inhibition at 10 μM)
NCCC(=O)N[C@H]1C(OCc2ccc3ccccc3c2)O[C@H](COCc2ccc3ccccc3c2)[C@@H](O)[C@@H]1OCc1ccc(Cl)cc1 (stereo partly shown) [compound 437]	–	–	–	–	–	–	–	–	–	− (“−” indicates less than 50% inhibition at 10 μM)	− (“−” indicates less than 50% inhibition at 10 μM)	+ (“+” indicates greater than 50% inhibition at 10 μM)	+ (“+” indicates greater than 50% inhibition at 10 μM)	− (“−” indicates less than 50% inhibition at 10 μM)	− (“−” indicates less than 50% inhibition at 10 μM)	+ (“+” indicates greater than 50% inhibition at 10 μM)	+ (“+” indicates greater than 50% inhibition at 10 μM)	+ (“+” indicates greater than 50% inhibition at 10 μM)	− (“−” indicates less than 50% inhibition at 10 μM)	− (“−” indicates less than 50% inhibition at 10 μM)	–
N=C(N)NCC(=O)NC1C(OCc2ccc(-c3ccccc3)cc2)OC(COCc2ccccc2)C(O)C1OCc1ccc(Cl)cc1 (stereo not shown) [compound 400]	–	–	–	–	–	–	–	–	–	− (“−” indicates less than 50% inhibition at 10 μM)	− (“−” indicates less than 50% inhibition at 10 μM)	+ (“+” indicates greater than 50% inhibition at 10 μM)	+ (“+” indicates greater than 50% inhibition at 10 μM)	− (“−” indicates less than 50% inhibition at 10 μM)	− (“−” indicates less than 50% inhibition at 10 μM)	+ (“+” indicates greater than 50% inhibition at 10 μM)	+ (“+” indicates greater than 50% inhibition at 10 μM)	+ (“+” indicates greater than 50% inhibition at 10 μM)	+ (“+” indicates greater than 50% inhibition at 10 μM)	− (“−” indicates less than 50% inhibition at 10 μM)	–
NCCCC(=O)NC1C(OCc2ccc(Cl)cc2)OC(COCc2ccc(Cl)cc2)C(O)C1OCc1ccc2ccccc2c1 (single isomer, unassigned) [compound 500]	− (“−” indicates less than 50% inhibition at 10 μM)	− (“−” indicates less than 50% inhibition at 10 μM)	+ (“+” indicates greater than 50% inhibition at 10 μM)	− (“−” indicates less than 50% inhibition at 10 μM)	+ (“+” indicates greater than 50% inhibition at 10 μM)	+ (“+” indicates greater than 50% inhibition at 10 μM)	+ (“+” indicates greater than 50% inhibition at 10 μM)	+ (“+” indicates greater than 50% inhibition at 10 μM)	− (“−” indicates less than 50% inhibition at 10 μM)	–	–	–	–	–	–	–	–	–	–	–	A6: inhibition of radioligand binding, human melanin-concentrating hormone (MCH1) ([3]; 10 µM): + (“+” indicates greater than 50% inhibition at 10 μM); A7: inhibition of radioligand binding, human μ-opioid (MOP) ([6]; 10 µM): + (“+” indicates greater than 50% inhibition at 10 μM)
